Test results as given in PMC10840383, “Clinical features, functional consequences, and rescue pharmacology of missense GRID1 and GRID2 human variants” (Human Molecular Genetics, 2023).

Tests used:
Assay type in all cases: cell-based
GluD2-T649M = biological target: T1, GluD2-T649M (Rattus norvegicus, UniProt Q63226, T649M); assay: TEVC of constitutive current, Xenopus oocytes expressing GluD2-T649M; settings: positive = increase, negative = decrease of activity
T1 construct: expressed in transfected cells; host or cells: Xenopus laevis oocytes injected with cRNA
T1 sequence (Q63226 24-1007 T649M): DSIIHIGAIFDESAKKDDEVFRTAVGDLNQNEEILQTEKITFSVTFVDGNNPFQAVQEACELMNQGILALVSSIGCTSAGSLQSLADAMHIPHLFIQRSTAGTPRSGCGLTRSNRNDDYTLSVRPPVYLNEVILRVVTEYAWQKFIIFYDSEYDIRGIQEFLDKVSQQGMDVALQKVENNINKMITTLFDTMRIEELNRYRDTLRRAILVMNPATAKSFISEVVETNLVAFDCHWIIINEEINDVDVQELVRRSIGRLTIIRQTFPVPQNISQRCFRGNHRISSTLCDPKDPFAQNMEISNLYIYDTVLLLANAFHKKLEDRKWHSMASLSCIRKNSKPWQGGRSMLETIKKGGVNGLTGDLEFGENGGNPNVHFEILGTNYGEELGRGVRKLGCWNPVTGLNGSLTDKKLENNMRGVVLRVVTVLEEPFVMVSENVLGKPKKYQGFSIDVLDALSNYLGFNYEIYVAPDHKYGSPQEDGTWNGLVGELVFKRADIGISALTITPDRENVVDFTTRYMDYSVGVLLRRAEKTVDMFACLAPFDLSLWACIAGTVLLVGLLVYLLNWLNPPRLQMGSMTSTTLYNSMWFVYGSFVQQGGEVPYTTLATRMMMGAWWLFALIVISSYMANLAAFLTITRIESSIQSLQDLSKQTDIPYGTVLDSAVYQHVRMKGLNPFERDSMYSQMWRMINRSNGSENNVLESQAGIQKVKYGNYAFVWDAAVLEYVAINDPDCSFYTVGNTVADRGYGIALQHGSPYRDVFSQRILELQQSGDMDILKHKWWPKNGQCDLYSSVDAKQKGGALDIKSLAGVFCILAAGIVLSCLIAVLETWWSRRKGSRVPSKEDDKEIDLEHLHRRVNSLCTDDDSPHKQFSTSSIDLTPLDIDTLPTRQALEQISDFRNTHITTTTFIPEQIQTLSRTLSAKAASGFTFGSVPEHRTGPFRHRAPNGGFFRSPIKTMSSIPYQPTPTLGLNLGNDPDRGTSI

GluD1-T649I = biological target: T2, GluD1-T649I (Homo sapiens, UniProt Q9ULK0, T649I); assay: TEVC of constitutive current, Xenopus oocytes expressing GluD1-T649I; settings: positive = increase, negative = decrease of activity
T2 construct: expressed in transfected cells; host or cells: Xenopus laevis oocytes injected with cRNA
T2 sequence (Q9ULK0 21-1009 T649I): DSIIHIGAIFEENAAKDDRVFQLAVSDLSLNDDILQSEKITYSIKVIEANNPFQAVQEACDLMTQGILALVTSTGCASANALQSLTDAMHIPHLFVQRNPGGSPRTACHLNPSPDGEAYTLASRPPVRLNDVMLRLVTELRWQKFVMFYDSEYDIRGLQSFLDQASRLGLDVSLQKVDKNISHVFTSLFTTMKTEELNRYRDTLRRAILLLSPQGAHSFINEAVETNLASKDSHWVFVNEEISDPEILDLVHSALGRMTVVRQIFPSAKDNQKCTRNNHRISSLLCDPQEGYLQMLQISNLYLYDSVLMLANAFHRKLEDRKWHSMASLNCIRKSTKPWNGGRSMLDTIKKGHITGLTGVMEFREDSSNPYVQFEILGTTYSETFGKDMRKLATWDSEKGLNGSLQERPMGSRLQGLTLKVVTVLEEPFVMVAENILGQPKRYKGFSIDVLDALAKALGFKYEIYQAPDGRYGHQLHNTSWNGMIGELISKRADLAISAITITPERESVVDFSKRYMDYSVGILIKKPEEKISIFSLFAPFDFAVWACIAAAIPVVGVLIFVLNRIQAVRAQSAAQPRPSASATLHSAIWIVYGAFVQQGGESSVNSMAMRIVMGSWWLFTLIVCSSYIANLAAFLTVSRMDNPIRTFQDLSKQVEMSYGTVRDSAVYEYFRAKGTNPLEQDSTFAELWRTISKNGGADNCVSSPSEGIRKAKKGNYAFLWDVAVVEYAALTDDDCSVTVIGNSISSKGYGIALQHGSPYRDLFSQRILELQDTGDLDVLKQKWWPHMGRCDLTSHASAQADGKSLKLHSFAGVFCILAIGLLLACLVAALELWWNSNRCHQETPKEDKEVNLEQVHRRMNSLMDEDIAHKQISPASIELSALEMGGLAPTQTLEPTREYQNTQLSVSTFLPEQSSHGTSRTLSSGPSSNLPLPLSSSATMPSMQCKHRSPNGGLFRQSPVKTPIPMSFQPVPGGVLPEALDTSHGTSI

[1] = test system: constitutively active GluD1 and GluD2 receptor variants; assay: Inhibition of constitutive currents of GluD variants by channel blockers, Xenopus oocytes
Method: Xenopus laevis oocytes were prepared from ovaries purchased from Xenopus 1 (Dexter, MI) as previously described, [68] and incubated at 16°C in culture Barth’s solution (in mM) 88 NaCl, 2.4 NaHCO3, 1 KCl, 0.33 Ca(NO3)2, 0.41 CaCl2, 0.82 MgSO4, 10 HEPES, pH 7.4 with NaOH, supplemented with 1 U/ml penicillin and 1 μg/ml streptomycin. Oocytes were injected with approximately 5–40 ng RNA per oocyte and then incubated at 16–19°C for 1–3 days in culture Barth’s solution. The levels of GluD2-A654D and GluD2-A654T cRNA were reduced to 1.5 ng and 2.5 ng, respectively, due to oocyte toxicity. Two-electrode voltage clamp (TEVC) recordings were performed as previously described. Unless otherwise specified, extracellular solution contained (in mM) 90 NaCl, 3 KCl, 0.5 BaCl2, 0.01 EDTA, 10 HEPES, and was brought to pH 7.4 with NaOH. The oocytes were placed in a dual track recording chamber and gravity perfused with solution exchange controlled via a computer-driven 8-valve positioner (Digital MVP Valve). […] Recording electrodes were filled with 0.3 M KCl, and currents were recorded with membrane voltage held at −40 mV. To establish constitutive activity of recombinant receptors when compared to wild type receptors, we used the oocyte recording solution described above, but with 90 mM N-methyl-D-glucamine (NMDG) chloride replacing 90 mM NaCl. […] In addition to establishing constitutive activity, 90 mM NMDG was used in recording protocols with drug treatment to obtain the percent maximum theoretical inhibition of a compound, or to determine the relative degree of drug potentiation. For Ca^2+ concentration-response curves, choline chloride was used to maintain equimolar concentrations of Cl^− ions in the extracellular solution across the changing concentrations of calcium chloride. All compounds used in this study for concentration-response oocyte recordings were dissolved in deionized water as 50–100 mM stock solutions. In some rescue pharmacology experiments, we substituted 1 mM CaCl2 for 0.5 mM BaCl2 to evaluate Ca^2+-dependent control of receptor responses.

D-Serine effect (Baseline −10 mM D-Serine) (GluD2-T649M; 10 mM D-serine)	D-Serine effect (Baseline −10 mM D-Serine) (GluD1-T649I; 10 mM D-serine)	Structure (SMILES)	Inhibition of constitutive currents, in words [1]	Pentamidine effect (Baseline −100 μM Pentamidine) (GluD2-T649M; 100 μM pentamidine)	Pentamidine effect (Baseline −100 μM Pentamidine) (GluD1-T649I; 100 μM pentamidine)
−0.31 ± 2.8 (16) nA	8.9 ± 1.2 (9) nA	N[C@H](CO)C(=O)O [D-serine]	–	–	–
–	–	CC12CC3CC(C)(C1)CC(N)(C3)C2 [Memantine, memantine]	more effectively than ketamine	–	–
–	–	N=C(N)c1ccc(OCCCCCOc2ccc(C(=N)N)cc2)cc1 [Pentamidine, pentamidine]	inhibits	5.8 ± 7.0 (16) nA	−45 ± 9.5 (9) nA
